Assay results published in article PMC10011156, “Characterization of a highly conserved MUC5B-degrading protease, MdpL, from Limosilactobacillus fermentum” (Frontiers in Microbiology, 2023).

The compounds below were run against T1, MdpL (Mucin degrading protease from Limosilactobacillus); putative O-sialoglycoprotein endopeptidase (OSGP) (Limosilactobacillus fermentum, UniProt B2GAG0) (assay: Etanercept hydrolysis, SDS-PAGE with densitometry). Conditions: inhibitor concentration per manufacturer, not given.
T1 construct: gene tsaD; C-terminal Gly-Ser-Gly linker and 6xHis tag kept
T1 sequence (B2GAG0 1-344): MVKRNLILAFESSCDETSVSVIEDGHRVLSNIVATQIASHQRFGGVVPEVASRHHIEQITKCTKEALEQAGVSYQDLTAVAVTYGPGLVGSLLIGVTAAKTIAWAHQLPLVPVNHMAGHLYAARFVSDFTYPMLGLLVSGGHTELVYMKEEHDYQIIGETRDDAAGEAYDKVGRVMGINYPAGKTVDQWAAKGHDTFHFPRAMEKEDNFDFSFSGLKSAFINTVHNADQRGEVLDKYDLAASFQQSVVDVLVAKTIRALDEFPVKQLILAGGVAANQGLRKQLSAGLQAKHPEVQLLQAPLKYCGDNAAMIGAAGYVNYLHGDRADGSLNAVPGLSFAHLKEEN
Type: biochemical
With `NCCc1ccc(S(=O)(=O)F)cc1` [AEBSF] the “inhibition level (%)” value was “AEBSF, ALLN, Antipain, Chymostatin, E64, Leupeptin, and Phosphoramidon completely inhibited the MdpL activity”.
In the case of `CC(C)C[C@H](NC(=O)[C@@H](O)[C@H](N)Cc1ccccc1)C(=O)O` [Bestatin], the “inhibition level (%)” value is reported as “Bestatin, and PMSF had a moderate inhibitory effect”.
With `CC(C)C[C@H](NC(=O)[C@@H]1O[C@H]1C(=O)O)C(=O)NCCCCNC(=N)N` [E64] the “inhibition level (%)” value was “AEBSF, ALLN, Antipain, Chymostatin, E64, Leupeptin, and Phosphoramidon completely inhibited the MdpL activity”.
In the case of `CC(C)C[C@H](NP(=O)(O)O[C@@H]1O[C@@H](C)[C@H](O)[C@@H](O)[C@H]1O)C(=O)N[C@@H](Cc1c[nH]c2ccccc12)C(=O)O` [Phosphoramidon], the “inhibition level (%)” value is reported as “AEBSF, ALLN, Antipain, Chymostatin, E64, Leupeptin, and Phosphoramidon completely inhibited the MdpL activity”.
